In the experiment the target is T1, CIB1 and αIIb interaction (CIB1-GST : F-αIIb peptide) (Homo sapiens, UniProt Q99828).
T1 construct: made in house; host or cells: BL-21 plus RIL cells (E. coli)
T1 sequence (Q99828 1-191): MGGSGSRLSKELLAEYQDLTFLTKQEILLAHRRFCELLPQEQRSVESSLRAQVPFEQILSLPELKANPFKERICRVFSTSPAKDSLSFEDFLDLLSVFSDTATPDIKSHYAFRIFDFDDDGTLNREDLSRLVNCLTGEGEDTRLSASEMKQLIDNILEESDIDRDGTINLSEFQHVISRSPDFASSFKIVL
As to the kind of experiment: FP assay, 1536-well qHTS format (primary and confirmatory screen). The experiment is classed as binding. Conditions: for Efficacy (%): negative = inhibition; for Curve Class: negative sign = inhibitory curve; for IC50: read-out: IC50. (In general: qHTS replaces the single test concentration by a dilution series.)

[1] abbreviates: qHTS primary screen of LOPAC/NPACT libraries.
The mark [2] stands for this setting: qHTS primary screen hits, Table S2.
Setting [3] is: qHTS primary screen hits, Table S2, several classes where COUNT > 1.

Read-outs that look alike come from different tables or passages of the source.

As for `CC(=O)N[C@@H](Cc1c[nH]c2ccccc12)C(=O)OCc1cc(C(F)(F)F)cc(C(F)(F)F)c1` [NCGC00024832-04], under setting [1], the “Efficacy (%)” value is -16%, the “Curve Class” value is listed as -1.2 and the IC50 (usually the midpoint of a concentration-inhibition curve) came to 39.8 µM.
Consider `N#C/C(=C\c1ccc(O)c(O)c1)C(=O)NCCCNC(=O)/C(C#N)=C/c1ccc(O)c(O)c1` [NCGC00016027-04], for which, under setting [1], the “Efficacy (%)” value is on record as -24% and the “Curve Class” value is given as -1.2.
With `Cn1cnc2c1c(=O)[nH]c(=O)n2C` [NCGC00016023-18], under setting [2], the “Efficacy (%)” value is listed as -74% and the 50% inhibitory concentration (IC50) is 89.1 µM. In addition, under setting [3], the “Curve Class” value was -3.
For `Cc1c(-c2cccc3c(CCCOc4cccc5ccccc45)c(C(=O)O)n(Cc4cccnc4)c23)c(COc2ccc(N3CCN(S(=O)(=O)N(C)C)CC3)cc2)nn1C` [NCGC00347282-01] the same measures were -34%, 30.4 µM and -3.
As for `COc1cc(/C=C/c2ccccc2)c(C(=O)O)c(O)c1CC=C(C)C` [NCGC00385333-01], under setting [1], the “Efficacy (%)” value is -18%, the “Curve Class” value is -2.4 and the concentration for half-maximal inhibition (IC50) worked out at 31.6 µM.
`CN(C)c1ccc(C(=C2C=CC(=[N+](C)C)C=C2)c2ccc(N(C)C)cc2)cc1.[Cl-]` [NCGC00091112-09]: under setting [2], the “Efficacy (%)” value is recorded as -60%, the “Curve Class” value is given as -2.4 and the IC50 was 56.2 µM.
As for `OCCCc1ccccc1` [NCGC00165987-03], under setting [2], the “Efficacy (%)” value is recorded as -35% and the 50% inhibitory concentration (IC50) came out at 56.2 µM. Besides, under setting [3], the “Curve Class” value is reported as -2.2.
With `Cc1c(C)n(Cc2ccc(-c3ccccc3C(=O)O)cc2)c2ccc(C(=O)N[C@@H](C)c3ccc([N+](=O)[O-])cc3)cc12` [NCGC00347955-01], for the setting “qHTS FP screen hits, Table S2”, the “Efficacy (%)” value was -32% and the concentration for half-maximal inhibition (IC50) was 23.5 µM.
Turning to `Cc1cc(C)nc(NC(=S)N2CCN(c3ccc4nonc4c3)CC2)c1.O=C(O)C(F)(F)F` [NCGC00244156-01], under setting [2], the “Efficacy (%)” value is on record as -25% and the IC50 is 50.1 µM. The “Curve Class” value under setting [3] is recorded as -2.4.
As for `CN1CCC2(CCN3CCc4c(oc5ccccc45)C3C2)N(C)C1=O.Cl` (centres unmarked) [NCGC00015699-03], under setting [1], the “Efficacy (%)” value is -11%, the “Curve Class” value is -1.4 and the IC50 is 17.8 µM.
With `Cc1ccc(OCCn2c3c(c4ccccc42)CN(C(=O)C2CCCCC2)CC3)cc1.O=C(O)C(F)(F)F` [NCGC00238717-01], under setting [2], the “Efficacy (%)” value is -46% and the IC50 came to 56.2 µM. Also, the “Curve Class” value under setting [3] is listed as -2.4.
Turning to `Cc1cc(Cl)ccc1-n1c(CCC(=O)O)ccc1-c1cccs1` [NCGC00100435-03], under setting [2], the “Efficacy (%)” value was -33%, the “Curve Class” value is on record as -2.2 and the IC50 was 50.1 µM.
With `O=C1CCC(N2C(=O)c3ccccc3C2=O)C(=O)N1` (centres unmarked) [NCGC00015989-17], under setting [2], the “Efficacy (%)” value is on record as -28% and the IC50 is 50.1 µM. Also, the “Curve Class” value under setting [3] was -2.4.
For `Nc1c(C(=O)Nc2ccc(F)cc2)sc2nc(-c3cccs3)ccc12.O=C(O)C(F)(F)F` [NCGC00371815-01] the same measures were -31%, 79.4 µM and -2.4.
As to `COc1cccc(CNc2ccc(S(=O)(=O)Nc3nc(-c4ccccc4)cs3)cc2)c1O.O=C(O)C(F)(F)F` [NCGC00346865-01], under setting [2], the “Efficacy (%)” value is given as -34%, the “Curve Class” value is -2.4 and the 50% inhibitory concentration (IC50) was 50.1 µM.
On to `N[C@@H](CCC(=O)N[C@H](CSN=O)C(=O)NCC(=O)O)C(=O)O` [NCGC00094150-03], for which, under setting [1], the “Efficacy (%)” value is on record as -13%, the “Curve Class” value is -1.2 and the IC50 came out at 12.6 µM.
As to `O=C1c2ccccc2-c2n[nH]c3cccc1c23` [NCGC00261158-01], under setting [2], the “Efficacy (%)” value was -52%, the “Curve Class” value is reported as -1.2 and the 50% inhibitory concentration (IC50) is 14.1 µM.
For `O=C(Cn1nc(-c2ccc(F)cc2)ccc1=O)NCCc1ccccc1.O=C(O)C(F)(F)F` [NCGC00262332-01] the same measures were -24%, -2.4 and 56.2 µM.
Regarding `NS(=O)(=O)c1ccc(Cc2cn(-c3nc(C(=O)O)cs3)c3ncccc23)cc1` [NCGC00356703-01], under setting [2], the “Efficacy (%)” value is on record as -41% and the IC50 worked out at 44.7 µM. In addition, the “Curve Class” value under setting [3] is on record as -2.2.
`Cc1ccnc(N(C)C(=S)N2CCN(c3cccc(C(F)(F)F)c3)CC2)c1.O=C(O)C(F)(F)F` [NCGC00241084-01]: under setting [2], the “Efficacy (%)” value is given as -24%, the “Curve Class” value is listed as -2.4 and the half-maximal inhibitory concentration (IC50) stood at 50.1 µM.
As for `Cc1ccc(Cl)c(Nc2ccccc2C(=O)O)c1Cl` [NCGC00023217-06], under setting [2], the “Efficacy (%)” value is -57%, the “Curve Class” value is recorded as -2.2 and the IC50 stood at 44.7 µM.
Turning to `CC(=O)N1CCN(c2ccc(NC[C@H]3CO[C@](Cn4ccnc4)(c4ccc(Cl)cc4Cl)O3)cc2)CC1` [NCGC00250372-03], under setting [2], the “Efficacy (%)” value is -45% and the half-maximal inhibitory concentration (IC50) was found to be 44.7 µM. Moreover, the “Curve Class” value under setting [3] is given as -2.4.
`O=C(O)C(F)(F)F.O=C1c2ccccc2NC(c2ccc(-c3ccc(C(F)(F)F)cc3)o2)N1O` (centres unmarked) [NCGC00183389-01]: under setting [2], the “Efficacy (%)” value is listed as -24%, the “Curve Class” value is -2.4 and the IC50 was found to be 56.2 µM.
Take `N#C[C@@H]1C[C@@H]2C[C@@H]2N1C(=O)[C@@H](N)C12CC3CC(CC(O)(C3)C1)C2` [NCGC00242597-01]: under setting [2], the “Efficacy (%)” value is listed as -49% and the concentration for half-maximal inhibition (IC50) stood at 44.7 µM. In addition, under setting [3], the “Curve Class” value is -2.2.
For `Nc1ccc2nc3c(=O)n(CCc4ccccc4)c(=O)[nH]c3nc2c1.O=C(O)C(F)(F)F` [NCGC00356558-01] the same measures were -62%, 5 µM and -1.2.
Take `COCc1ccc(-c2nn(Cc3ccccc3)c3ccccc23)o1` [NCGC00479273-01]: under setting [2], the “Efficacy (%)” value is -37% and the IC50 came to 56.2 µM. Moreover, the “Curve Class” value under setting [3] was -2.4.
`CCOC(=O)C1=C(C)NC(C)=C(C(=O)OC)C1c1cccc([N+](=O)[O-])c1` (centres unmarked) [NCGC00015713-10]: under setting [1], the “Efficacy (%)” value is on record as -23%, the “Curve Class” value is -2.4 and the concentration for half-maximal inhibition (IC50) worked out at 63.1 µM.
For `Cc1ccccc1NC(=O)Nc1ccc(CN2C(=O)N([C@@H](CC(C)C)C(=O)N[C@@H](CC(=O)O)c3ccccc3)C(=O)C2(C)C)cc1` [NCGC00386592-01] the same measures were -28%, -2.4 and 56.2 µM.
For `O=[N+]([O-])c1cccc2c(Br)n[nH]c12` [NCGC00015143-10], under setting [1], the “Efficacy (%)” value was -16%, the “Curve Class” value was -2.4 and the concentration for half-maximal inhibition (IC50) was 79.4 µM.
On to `Oc1cc(O)cc(/C=C/c2ccc(O)c(O)c2)c1` [NCGC00094226-07], for which, under setting [1], the “Curve Class” value is -1.2 and the half-maximal inhibitory concentration (IC50) turned out to be 3.2 µM.
For the molecule `CC(=O)[C@]1(O)Cc2c(O)c3c(c(O)c2[C@@H](O[C@H]2C[C@H](N)[C@H](O)[C@H](C)O2)C1)C(=O)c1ccccc1C3=O` [NCGC00093976-06], under setting [2], the “Efficacy (%)” value was -86% and the half-maximal inhibitory concentration (IC50) is 19.1 µM.
`CCN1CCc2nc(N)oc2CC1.Cl` [NCGC00015131-04]: under setting [1], the “Efficacy (%)” value was -13%, the “Curve Class” value is listed as -2.4 and the IC50 stood at 39.8 µM.

Source of the values: publication PMC11249646, “Small-Molecule Disruptors of the Interaction between Calcium- and Integrin-Binding Protein 1 and Integrin αIIbβ3 as Novel Antiplatelet Agents” (ACS Pharmacology & Translational Science, 2024).
